Measured values: paper PMC6268379, “Antifungal Activity of Homoaconitate and Homoisocitrate Analogs” (Molecules, 2012)
Converted amounts (≈) assume the structure as drawn. Like-named read-outs stand apart in the source and are kept apart here.

What was measured:
Candida krusei DSM 6128 = experiment: Antifungal in vitro activity, microplate serial dilution (modified CLSI M27-A3); assay type: cell-based; details: Pichia kudriavzevii
[1] = system: Candida albicans ATCC 10231; experiment: as above; assay type: cell-based
[2] = system: Saccharomyces cerevisiae ATCC 9763; experiment: as above; assay type: cell-based
[3] = system: Candida tropicalis KKP 334; experiment: as above; assay type: cell-based
[4] = system: Candida glabrata DSM 11226; experiment: as above; assay type: cell-based; details: Nakaseomyces glabratus
[5] = system: Candida lusitaniae DSM 70102; experiment: as above; assay type: cell-based; details: Clavispora lusitaniae
six yeast strains = experiment: In vitro antifungal activity against six yeast strains; assay type: cell-based; details: for antifungal activity: salts, six yeast strains, stated in words; for MIC values, range over susceptible yeast strains: range stated in text over the tested yeast strains
[6] = biological target: T1, recombinant homoaconitase (HA) (Candida albicans, UniProt Q5A644); experiment: Homoaconitase activity, coupled reaction with HIcDH, NADH at 340 nm; assay type: biochemical; details: for effect on enzyme activity (homoaconitase): ester derivatives, concentrations up to 10 mM
T1 construct: made in house
T1 sequence (Q5A644 1-684): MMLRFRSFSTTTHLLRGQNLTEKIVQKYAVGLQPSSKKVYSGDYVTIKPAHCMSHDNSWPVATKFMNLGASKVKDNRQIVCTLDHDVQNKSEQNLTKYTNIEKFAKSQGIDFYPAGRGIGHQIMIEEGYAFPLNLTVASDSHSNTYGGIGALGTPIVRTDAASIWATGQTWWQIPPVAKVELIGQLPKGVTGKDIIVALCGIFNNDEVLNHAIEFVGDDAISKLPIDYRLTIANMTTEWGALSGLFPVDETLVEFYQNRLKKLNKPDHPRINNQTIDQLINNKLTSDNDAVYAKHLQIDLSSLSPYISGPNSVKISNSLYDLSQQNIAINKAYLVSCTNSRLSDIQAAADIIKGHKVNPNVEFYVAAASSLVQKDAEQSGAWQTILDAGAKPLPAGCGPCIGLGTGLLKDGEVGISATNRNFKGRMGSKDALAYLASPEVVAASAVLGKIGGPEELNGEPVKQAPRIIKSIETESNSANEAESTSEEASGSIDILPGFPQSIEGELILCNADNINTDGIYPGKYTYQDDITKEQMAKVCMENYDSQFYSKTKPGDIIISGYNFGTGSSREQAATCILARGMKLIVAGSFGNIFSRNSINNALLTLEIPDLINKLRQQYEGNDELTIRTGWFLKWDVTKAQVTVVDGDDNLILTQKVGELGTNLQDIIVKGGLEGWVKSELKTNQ
Experimental: (§1) Recombinant C. albicans homoaconitase (HA) and homoisocitrate dehydrogenase (HIcDH) containing oligoHis N-terminal tags were constructed and purified to near homogeneity as described earlier.
Activity of homoaconitase (HA) was measured by a coupled reaction with HIcDH by monitoring the reduction of NAD^+ to NADH at 340 nm. Reaction mixtures containing 50 mM Tris-HCl (pH 8.5), 50 mM KCl, 5 mM MgCl2, 20 mM dithiothreitol, 1 mM NAD^+ and 30 μg/mL of His6-HIcDH in a total volume of 0.9 mL were degassed under argon for 10 min, after which 0.05 mL of His6-HAC solution was added to a final concentration of 10 μg/mL. The reaction was initiated with addition of 0.05 mL of 50 mM (R)-homocitrate. The formation of NADH was measured for 30 s at 20 °C to determine initial reaction velocity. The initial rates were determined using a linear portion of the reaction progress curve.
(§2) The effects of novel compounds on the HA and HIcDH activity was determined by measuring the enzyme activity in standard assay mixtures containing various concentration of an inhibitor (0–10 mM). Inhibitory potential was expressed as IC50 values, i.e., concentrations causing 50% inhibition of enzyme activity in relation to control. All determinations were performed in triplicate.

[7] = biological target: recombinant homoisocitrate dehydrogenase (HIcDH) (Candida albicans, UniProt Q5A9D9); experiment: Homoisocitrate dehydrogenase activity, NADH absorption at 340 nm; assay type: biochemical; details: for IC50: recombinant C. albicans His-tagged HIcDH, inhibitor 0–10 mM, mean of three determinations ± SD; for effect on enzyme activity (homoisocitrate dehydrogenase): ester derivatives, concentrations up to 10 mM
Sequence of recombinant homoisocitrate dehydrogenase (HIcDH) (Q5A9D9 entry or part of it): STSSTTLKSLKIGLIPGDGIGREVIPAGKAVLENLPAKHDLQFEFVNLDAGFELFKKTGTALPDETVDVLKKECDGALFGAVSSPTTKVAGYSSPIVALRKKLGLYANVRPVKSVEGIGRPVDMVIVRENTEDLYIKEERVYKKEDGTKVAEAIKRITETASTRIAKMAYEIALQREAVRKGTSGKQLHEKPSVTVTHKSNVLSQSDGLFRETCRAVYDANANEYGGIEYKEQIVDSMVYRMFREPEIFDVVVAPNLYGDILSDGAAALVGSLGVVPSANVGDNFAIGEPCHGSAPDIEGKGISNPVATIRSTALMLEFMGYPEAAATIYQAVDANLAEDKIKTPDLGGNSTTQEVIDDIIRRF
Experimental: as §1
Reaction catalyzed by homoisocitrate dehydrogenase (HIcDH) was monitored by measuring the NADH absorption at 340 nm. The standard assay mixture contained 10 mM KCl, 5.0 mM MgCl2, 5 mM NAD^+ and 0.1 mM (2R,3S)-homoisocitrate in 50 mM Hepes-NaOH (pH 7.8) buffer. The reaction mixture with all required components except for the enzyme was preincubated for 3 min and the reaction was started by an addition of the recombinant His6-HIcDH (50 μg). The formation of NADH was measured for 30 s at 20 °C to determine initial reaction velocity. The initial rates were determined using a linear portion of the reaction progress curve.
as §2

[8] = DSM6128, RPMI-1640 pH 7.0, 24 h at 37 °C, at least 80% decrease in turbidity, read-out: MIC C. krusei
[9] = ATCC10231, RPMI-1640 pH 7.0, 24 h at 37 °C, at least 80% decrease in turbidity, read-out: MIC C. albicans
[10] = ATCC9763, RPMI-1640 pH 7.0, 24 h at 37 °C, at least 80% decrease in turbidity, read-out: MIC S. cerevisiae
[11] = KKP334, RPMI-1640 pH 7.0, 24 h at 37 °C, at least 80% decrease in turbidity, read-out: MIC C. tropicalis
[12] = DSM11226, RPMI-1640 pH 7.0, 24 h at 37 °C, at least 80% decrease in turbidity, read-out: MIC C. glabrata
[13] = DSM70102, RPMI-1640 pH 7.0, 24 h at 37 °C, at least 80% decrease in turbidity, read-out: MIC C. lusitaniae
[14] = DSM6128, 24 h, pH 7, read-out: MIC C. krusei
[15] = ATCC10231, 24 h, pH 7, read-out: MIC C. albicans
[16] = ATCC9763, 24 h, pH 7, read-out: MIC S. cerevisiae
[17] = KKP334, 24 h, pH 7, read-out: MIC C. tropicalis
[18] = DSM11226, 24 h, pH 7, read-out: MIC C. glabrata
[19] = DSM70102, 24 h, pH 7, read-out: MIC C. lusitaniae

MIC (Candida krusei DSM 6128; [8]) | MIC [1, 9] | MIC [2, 10] | MIC [3, 11] | MIC [4, 12] | MIC [5, 13] | Structure (SMILES) | MIC (Candida krusei DSM 6128; [14]) | MIC [1, 15] | antifungal activity (six yeast strains) | MIC [2, 16] | IC50 [6] | IC50 [7] | MIC [3, 17] | MIC [4, 18] | MIC [5, 19] | MIC values, range over susceptible yeast strains (six yeast strains) | effect on enzyme activity (homoaconitase) [6] | effect on enzyme activity (homoisocitrate dehydrogenase) [7] | Km ([7]; recombinant C. albicans HIcDH, read-out: KM of recombinant HIcDH for cofactor)
> 512 µg/mL | 256 µg/mL (≈ 1160 µM) | > 512 µg/mL | 128 µg/mL (≈ 581 µM) | 512 µg/mL (≈ 2320 µM) | 128 µg/mL (≈ 581 µM) | CCCC[C@@H](C(=O)OC)[C@@H](F)C(=O)OC [Compound 6b, Dimethyl (2R,3S)-2-fluoro-3-butylsuccinate] | – | – | – | – | – | – | – | – | – | – | – | – | –
> 512 µg/mL | > 512 µg/mL | > 512 µg/mL | > 512 µg/mL | > 512 µg/mL | > 512 µg/mL | C=CC[C@@H](C(=O)OC)[C@H](O)C(=O)OC [Compound 5c, Dimethyl (2S,3R)-2-hydroxy-3-allylsuccinate] | – | – | – | – | – | – | – | – | – | – | – | – | –
– | – | – | – | – | – | O=C([O-])/C=C(\CCC(=O)[O-])C(=O)[O-].[K+].[K+].[K+] [Compound 2, tripotassium (1E)-but-1-ene-1,2,4-tricarboxylate] | > 512 µg/mL | > 512 µg/mL | None | > 512 µg/mL | 1.58 ± 0.11 mM | > 10 mM | > 512 µg/mL | > 512 µg/mL | > 512 µg/mL | – | – | – | –
> 512 µg/mL | > 512 µg/mL | > 512 µg/mL | > 512 µg/mL | > 512 µg/mL | > 512 µg/mL | CCCC[C@@H](C(=O)OC)[C@H](O)C(=O)OC [Compound 5b, Dimethyl (2S,3R)-2-hydroxy-3-butylsuccinate] | – | – | – | – | – | – | – | – | – | – | – | – | –
512 µg/mL (≈ 2510 µM) | 256 µg/mL (≈ 1250 µM) | > 512 µg/mL | 256 µg/mL (≈ 1250 µM) | 256 µg/mL (≈ 1250 µM) | > 512 µg/mL | C=CC[C@@H](C(=O)OC)[C@@H](F)C(=O)OC [Compound 6c, Dimethyl (2R,3S)-2-fluoro-3-allylsuccinate] | – | – | – | – | – | – | – | – | – | – | – | – | –
– | – | – | – | – | – | O=C([O-])CC[C@@H](C(=O)[O-])[C@@H](F)C(=O)[O-].[K+].[K+].[K+] [Compound 10, tripotassium (1R,2S)-1-fluorobutane-1,2,4-tricarboxylate] | > 512 µg/mL | > 512 µg/mL | None | > 512 µg/mL | > 10 mM | 3.22 ± 0.55 mM | > 512 µg/mL | > 512 µg/mL | > 512 µg/mL | – | – | – | –
> 512 µg/mL | > 512 µg/mL | > 512 µg/mL | > 512 µg/mL | > 512 µg/mL | 512 µg/mL (≈ 2480 µM) | CCC[C@@H](C(=O)OC)[C@@H](F)C(=O)OC [Compound 6a, Dimethyl (2R,3S)-2-fluoro-3-propylsuccinate] | – | – | – | – | – | – | – | – | – | – | – | – | –
– | – | – | – | – | – | NC(=O)c1ccc[n+]([C@@H]2O[C@H](COP(=O)([O-])OP(=O)(O)OC[C@H]3O[C@@H](n4cnc5c(N)ncnc54)[C@H](O)[C@@H]3O)[C@@H](O)[C@H]2O)c1 [NAD^+, reference compound] | – | – | – | – | – | – | – | – | – | – | – | – | 1.1 mM
8 µg/mL (≈ 26.1 µM) | 4 µg/mL (≈ 13.1 µM) | 4 µg/mL (≈ 13.1 µM) | 2 µg/mL (≈ 6.53 µM) | 8 µg/mL (≈ 26.1 µM) | 4 µg/mL (≈ 13.1 µM) | OC(Cn1cncn1)(Cn1cncn1)c1ccc(F)cc1F [Flu, Fluconazole, reference compound] | – | – | – | – | – | – | – | – | – | – | – | – | –
> 512 µg/mL | > 512 µg/mL | > 512 µg/mL | > 512 µg/mL | > 512 µg/mL | > 512 µg/mL | CCC[C@@H](C(=O)OC)[C@H](O)C(=O)OC [Compound 5a, Dimethyl (2S,3R)-2-hydroxy-3-propylsuccinate] | – | – | – | – | – | – | – | – | – | – | – | – | –
– | – | – | – | – | – | C=CC[C@@H](C(=O)[O-])[C@@H](F)C(=O)[O-].[K+].[K+] [Compound 7c, Dipotassium (2R,3S)-2-fluoro-3-allylsuccinate] | > 512 µg/mL | > 512 µg/mL | None | > 512 µg/mL | > 10 mM | 6.78 ± 0.56 mM | > 512 µg/mL | > 512 µg/mL | 512 µg/mL | – | – | – | –

Structure (SMILES) | MIC (Candida krusei DSM 6128; [8]) | MIC [1, 9] | MIC [2, 10] | MIC [3, 11] | MIC [4, 12] | MIC [5, 13] | MIC (Candida krusei DSM 6128; [14]) | MIC [1, 15] | antifungal activity (six yeast strains) | MIC [2, 16] | IC50 [6] | IC50 [7] | MIC [3, 17] | MIC [4, 18] | MIC [5, 19] | MIC values, range over susceptible yeast strains (six yeast strains) | effect on enzyme activity (homoaconitase) [6] | effect on enzyme activity (homoisocitrate dehydrogenase) [7] | Km ([7]; recombinant C. albicans HIcDH, read-out: KM of recombinant HIcDH for cofactor)
COC(=O)CCC1(C(=O)OC)OC1C(=O)OC (stereo not drawn) [Compound 3, Trimethyl (1E)1,2-epoxy-butane-1,2,4-tricarboxylate] | > 512 µg/mL | 256 µg/mL (≈ 1040 µM) | > 512 µg/mL | 128 µg/mL (≈ 520 µM) | 128 µg/mL (≈ 520 µM) | 512 µg/mL (≈ 2080 µM) | – | – | – | – | – | – | – | – | – | 128 to 512 µg/mL | none | none | –
O=C(O)CCC1(C(=O)O)OC1C(=O)O (stereo not drawn) [Compound 4, Tripotassium (1E)1,2-epoxy-butane-1,2,4-tricarboxylate] | > 512 µg/mL | > 512 µg/mL | > 512 µg/mL | > 512 µg/mL | > 512 µg/mL | > 512 µg/mL | – | – | None | – | 5.76 ± 0.34 mM | > 10 mM | – | – | – | – | – | – | –
COC(=O)CC[C@@H](C(=O)OC)[C@@H](F)C(=O)OC [Compound 9, trimethyl (1R,2S)-1-fluorobutane-1,2,4-tricarboxylate] | 256 µg/mL (≈ 1020 µM) | 128 µg/mL (≈ 512 µM) | > 512 µg/mL | 64 µg/mL (≈ 256 µM) | 256 µg/mL (≈ 1020 µM) | > 512 µg/mL | – | – | – | – | – | – | – | – | – | – | none | none | –
COC(=O)/C=C(\CCC(=O)OC)C(=O)OC [Compound 1a, trimethyl (1E)-but-1-ene-1,2,4-tricarboxylate] | 32 µg/mL (≈ 139 µM) | 16 µg/mL (≈ 69.5 µM) | 32 µg/mL (≈ 139 µM) | 32 µg/mL (≈ 139 µM) | 16 µg/mL (≈ 69.5 µM) | 16 µg/mL (≈ 69.5 µM) | – | – | – | – | – | – | – | – | – | 16 to 32 µg/mL | none | none | –
